Consider 21 molecules from ChEMBL document CHEMBL3124764, “6-Triazolyl-substituted sulfocoumarins are potent, selective inhibitors of the tumor-associated carbonic anhydrases IX and XII” (Bioorg Med Chem Lett, 2014).

Each structure is given as a SMILES string.

The target of one experiment is Carbonic anhydrase 2 (Homo sapiens, UniProt P00918). Kind of experiment: Inhibition of human recombinant carbonic anhydrase 2-mediated CO2 hydration after 6 hrs by stopped-flow assay.
Experiment [1] addresses T1, Carbonic anhydrase 9 (Homo sapiens, UniProt Q16790). Kind of experiment: Inhibition of human recombinant carbonic anhydrase 9-mediated CO2 hydration after 6 hrs by stopped-flow assay.
For the next experiment, the target named is Carbonic anhydrase 1 (Homo sapiens, UniProt P00915). In words: Inhibition of human recombinant carbonic anhydrase 1-mediated CO2 hydration after 6 hrs by stopped-flow assay.
The target in experiment [2] is T1, Carbonic anhydrase 9. In words: Ratio of acetazolamide Ki to compound Ki for human recombinant carbonic anhydrase 9.

Chain of Carbonic anhydrase 1 (P00915 whole entry): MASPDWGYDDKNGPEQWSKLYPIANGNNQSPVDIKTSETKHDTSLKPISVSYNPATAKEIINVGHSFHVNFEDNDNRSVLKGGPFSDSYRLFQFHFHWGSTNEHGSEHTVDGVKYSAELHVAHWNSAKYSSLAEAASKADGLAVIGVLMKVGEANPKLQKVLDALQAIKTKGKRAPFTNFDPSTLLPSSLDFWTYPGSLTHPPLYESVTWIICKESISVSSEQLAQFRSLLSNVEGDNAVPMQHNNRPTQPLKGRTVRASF

For the molecule `O=S1(=O)C=Cc2cc(-n3cc(-c4ccc(C(F)(F)F)cc4)nn3)ccc2O1`, the Ki (commonly a dissociation constant, usually derived from enzyme kinetics or from competition with a known ligand) at Carbonic anhydrase 2 is more than 10 µM; at Carbonic anhydrase 9 [1], 0.136 µM; on Carbonic anhydrase 1, more than 10 µM.

Turning to `O=S1(=O)C=Cc2cc(-n3nncc3-c3cccc(Cl)c3)ccc2O1`, the Ki at Carbonic anhydrase 2 is more than 10 µM; at Carbonic anhydrase 9 [1] it was 0.0088 µM; at Carbonic anhydrase 1, more than 10 µM.

For the molecule `O=S1(=O)C=Cc2cc(-n3nncc3-c3cccc(C(F)(F)F)c3)ccc2O1`, the Ki on Carbonic anhydrase 2 and at Carbonic anhydrase 1 was more than 10 µM in each case.

With `Nc1ccccc1-c1cn(-c2ccc3c(c2)C=CS(=O)(=O)O3)nn1`, the values for the inhibition constant (Ki) on Carbonic anhydrase 2, on Carbonic anhydrase 9 [1] and at Carbonic anhydrase 1 were more than 10 µM, 0.0079 µM and more than 10 µM, respectively.

Consider `O=S1(=O)C=Cc2cc(-n3nncc3-c3ccccc3)ccc2O1`, for which the Ki at Carbonic anhydrase 2 was more than 10 µM; on Carbonic anhydrase 9 [1], 0.0671 µM; on Carbonic anhydrase 1 it was more than 10 µM.

Regarding `CC(C)(O)c1cn(-c2ccc3c(c2)C=CS(=O)(=O)O3)nn1`, the Ki on Carbonic anhydrase 2 is more than 10 µM; at Carbonic anhydrase 9 [1], 0.0627 µM; at Carbonic anhydrase 1 it was more than 10 µM.

Consider `Nc1ccccc1-c1cnnn1-c1ccc2c(c1)C=CS(=O)(=O)O2`, for which the results for the inhibitory constant (Ki) on Carbonic anhydrase 2, at Carbonic anhydrase 9 [1] and at Carbonic anhydrase 1 were more than 10 µM, 0.0095 µM and more than 10 µM, respectively.

`O=S1(=O)C=Cc2cc(-n3nncc3-c3cccc(F)c3)ccc2O1`: the Ki on Carbonic anhydrase 2 is more than 10 µM; at Carbonic anhydrase 9 [1], 0.0074 µM; at Carbonic anhydrase 1, more than 10 µM.

As to `O=S1(=O)C=Cc2cc(-n3cc(-c4cccc(Cl)c4)nn3)ccc2O1`, the Ki at Carbonic anhydrase 2 is more than 10 µM; on Carbonic anhydrase 9 [1], 0.0931 µM; on Carbonic anhydrase 1 it was more than 10 µM.

With `O=S1(=O)C=Cc2cc(-n3cc(C4CC4)nn3)ccc2O1`, the inhibition constant Ki on Carbonic anhydrase 2 and on Carbonic anhydrase 1 was more than 10 µM each time.

With `O=S1(=O)C=Cc2cc(-n3cc(-c4ccc(F)cc4)nn3)ccc2O1`, the Ki on Carbonic anhydrase 2 and on Carbonic anhydrase 1 was more than 10 µM in each case.

As for `O=S1(=O)C=Cc2cc(-n3cc(-c4ccc(Cl)cc4)nn3)ccc2O1`, the inhibition constant Ki at Carbonic anhydrase 2 and at Carbonic anhydrase 1 was more than 10 µM throughout. Further, the Ratio Ki on Carbonic anhydrase 9 [2] was 3.

Turning to `O=S1(=O)C=Cc2cc(-n3nncc3-c3ccc(C(F)(F)F)cc3)ccc2O1`, the Ki at Carbonic anhydrase 2 was more than 10 µM; at Carbonic anhydrase 9 [1], 0.0072 µM; at Carbonic anhydrase 1, more than 10 µM.

Regarding `CC(C)(C)c1cn(-c2ccc3c(c2)C=CS(=O)(=O)O3)nn1`, the values for the Ki on Carbonic anhydrase 2, at Carbonic anhydrase 9 [1] and at Carbonic anhydrase 1 were more than 10 µM, 0.0105 µM and more than 10 µM, respectively.

With `COc1ccc(-c2cnnn2-c2ccc3c(c2)C=CS(=O)(=O)O3)cc1`, the values for the Ki on Carbonic anhydrase 2, on Carbonic anhydrase 9 [1] and at Carbonic anhydrase 1 were more than 10 µM, 0.0083 µM and more than 10 µM, respectively.

For `COc1cccc(-c2cnnn2-c2ccc3c(c2)C=CS(=O)(=O)O3)c1`, the Ki on Carbonic anhydrase 2 was more than 10 µM; on Carbonic anhydrase 9 [1] it was 0.0091 µM; on Carbonic anhydrase 1, more than 10 µM.

`O=S1(=O)C=Cc2cc(-n3nncc3-c3ccc(F)cc3)ccc2O1`: the inhibition constant Ki on Carbonic anhydrase 2 and at Carbonic anhydrase 1 was more than 10 µM throughout.

As to `O=S1(=O)C=Cc2cc(-n3nncc3-c3ccc(OC(F)(F)F)cc3)ccc2O1`, the Ki on Carbonic anhydrase 2 was more than 10 µM; at Carbonic anhydrase 9 [1] it was 0.102 µM; at Carbonic anhydrase 1, more than 10 µM.

Consider `Nc1cccc(-c2cn(-c3ccc4c(c3)C=CS(=O)(=O)O4)nn2)c1`, for which the values for the Ki on Carbonic anhydrase 2, at Carbonic anhydrase 9 [1] and at Carbonic anhydrase 1 were more than 10 µM, 0.875 µM and more than 10 µM, respectively.

On to `O=S1(=O)C=Cc2cc(-n3nncc3-c3ccc(Cl)cc3)ccc2O1`, for which the results for the Ki at Carbonic anhydrase 2, at Carbonic anhydrase 9 [1] and on Carbonic anhydrase 1 were more than 10 µM, 0.0092 µM and more than 10 µM, respectively.

For the molecule `O=S1(=O)C=Cc2cc(-n3cc(-c4cccc(F)c4)nn3)ccc2O1`, the Ki on Carbonic anhydrase 2 and on Carbonic anhydrase 1 was more than 10 µM throughout.
